# Measurements reported in patent publication US20230085307A1, “PYRIDAZINONE COMPOUND AND HERBICIDE” (NISSAN CHEMICAL CORPORATION, priority 2019, published 2023).
# System: wild oat
# Test: Test Example 4: herbicidal effect by soil treatment (Table 19, symbol I)
# Assay type: in vivo, wild oat (Avena fatua)
# Conditions: amount of applied herbicide 320 g/ha
# How it was run: (§1)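 Applied as a water-diluted emulsion, the compound was sprayed onto soil covering newly sown seeds. Evaluation came three weeks after application, in a greenhouse held at 25° C. to 30° C.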
row,Compound,"I: wild oat, herbicidal effect rating"
1,C=Cc1ccc2sc(-c3ccccc3OC)c(-c3c(O)c(C)nn(C)c3=O)c2c1 [2-185],0 (Herbicidal rate of 5% or less (almost no effect))
2,Cc1nn(C)c(=O)c(-c2c(-c3ccccc3)sc3ccc(F)cc23)c1O [2-197],1 (Herbicidal rate of 5% or more and less than 20%)

# System: green foxtail
# Test: Test Example 4: herbicidal effect by soil treatment (Table 19, symbol G)
# Assay type: in vivo, green foxtail (Setaria viridis)
# Conditions: amount of applied herbicide 320 g/ha
# How it was run: as §1
row,Compound,"G: green foxtail, herbicidal effect rating"
1,C=Cc1ccc2sc(-c3ccccc3OC)c(-c3c(O)c(C)nn(C)c3=O)c2c1 [2-185],0 (Herbicidal rate of 5% or less (almost no effect))
2,Cc1nn(C)c(=O)c(-c2c(-c3ccccc3)sc3ccc(F)cc23)c1O [2-197],4 (Herbicidal rate of 70% or more and less than 90%)

# System: Italian ryegrass
# Test: Test Example 5: herbicidal effect by foliage application, plastic box (Table 20, symbol K)
# Assay type: in vivo, Italian ryegrass (Lolium multiflorum)
# Conditions: foliage application, 320 g/ha, evaluated three weeks after application
# How it was run: (§2)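 Sow seeds spot-wise in sterilized diluvial soil; cover with ~1.5 cm soil. Grow 14 days in greenhouse, 25° C. to 30° C. Spray foliage with emulsion diluted to predetermined amount. Rate effect after 3 weeks.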
row,Compound,herbicidal effect on K: Italian ryegrass (criteria 0-5)
1,C=Cc1ccc2sc(-c3ccccc3OC)c(-c3c(O)c(C)nn(C)c3=O)c2c1 [2-185],0 (Herbicidal rate of 5% or less (almost no effect))
2,Cc1nn(C)c(=O)c(-c2c(-c3ccccc3)sc3ccc(F)cc23)c1O [2-197],4 (Herbicidal rate of 70% or more and less than 90%)

# System: persian speedwell
# Test: Test Example 5: herbicidal effect by foliage application, plastic box (Table 20, symbol R)
# Assay type: in vivo, Persian speedwell (Veronica persica)
# Conditions: foliage application, 320 g/ha, evaluated three weeks after application
# How it was run: as §2
row,Compound,herbicidal effect on R: persian speedwell (criteria 0-5)
1,C=Cc1ccc2sc(-c3ccccc3OC)c(-c3c(O)c(C)nn(C)c3=O)c2c1 [2-185],4 (Herbicidal rate of 70% or more and less than 90%)
2,Cc1nn(C)c(=O)c(-c2c(-c3ccccc3)sc3ccc(F)cc23)c1O [2-197],5 (Herbicidal rate of 90% or more (almost completely withered))

# System: Japanese bulrush
# Test: Test Example 2: herbicidal activity, application during weed generation under submerged conditions (Table 17, symbol B)
# Assay type: in vivo, Japanese bulrush (Schoenoplectus juncoides)
# Conditions: AAH 320 g/ha; application during weed generation, submerged conditions
# How it was run: (§3)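 Herbicide emulsion, diluted with water to the chosen amount, is applied onto 4 cm floodwater over alluvial soil where the weeds were co-sown and raised at 25–30° C. Application timing: 1–2 leaves. Assessment: three weeks afterwards.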
row,Compound,"herbicidal effect rating, B: Japanese bulrush"
1,C=Cc1ccc2sc(-c3ccccc3OC)c(-c3c(O)c(C)nn(C)c3=O)c2c1 [2-185],0 (Herbicidal rate of 5% or less (almost no effect))
2,Cc1nn(C)c(=O)c(-c2c(-c3ccccc3)sc3ccc(F)cc23)c1O [2-197],3 (Herbicidal rate of 40% or more and less than 70%)

# System: blackgrass
# Test: Test Example 4: herbicidal effect by soil treatment (Table 19, symbol J)
# Assay type: in vivo, blackgrass (Alopecurus myosuroides)
# Conditions: amount of applied herbicide 320 g/ha
# How it was run: as §1
row,Compound,"J: blackgrass, herbicidal effect rating"
1,C=Cc1ccc2sc(-c3ccccc3OC)c(-c3c(O)c(C)nn(C)c3=O)c2c1 [2-185],0 (Herbicidal rate of 5% or less (almost no effect))
2,Cc1nn(C)c(=O)c(-c2c(-c3ccccc3)sc3ccc(F)cc23)c1O [2-197],3 (Herbicidal rate of 40% or more and less than 70%)

# System: oval-leafed pondweed
# Test: Test Example 2: herbicidal activity, application during weed generation under submerged conditions (Table 17, symbol C)
# Assay type: in vivo, oval-leafed pondweed (Monochoria vaginalis)
# Conditions: AAH 320 g/ha; application during weed generation, submerged conditions
# How it was run: as §3
row,Compound,"herbicidal effect rating, C: oval-leafed pondweed"
1,C=Cc1ccc2sc(-c3ccccc3OC)c(-c3c(O)c(C)nn(C)c3=O)c2c1 [2-185],0 (Herbicidal rate of 5% or less (almost no effect))
2,Cc1nn(C)c(=O)c(-c2c(-c3ccccc3)sc3ccc(F)cc23)c1O [2-197],4 (Herbicidal rate of 70% or more and less than 90%)

# System: late watergrass
# Test: Test Example 2: herbicidal activity, application during weed generation under submerged conditions (Table 17, symbol A)
# Assay type: in vivo, late watergrass (Echinochloa oryzicola)
# Conditions: AAH 320 g/ha; application during weed generation, submerged conditions
# How it was run: as §3
row,Compound,"herbicidal effect rating, A: late watergrass"
1,C=Cc1ccc2sc(-c3ccccc3OC)c(-c3c(O)c(C)nn(C)c3=O)c2c1 [2-185],3 (Herbicidal rate of 40% or more and less than 70%)
2,Cc1nn(C)c(=O)c(-c2c(-c3ccccc3)sc3ccc(F)cc23)c1O [2-197],3 (Herbicidal rate of 40% or more and less than 70%)

# System: lambsquarters
# Test: Test Example 5: herbicidal effect by foliage application, plastic box (Table 20, symbol O)
# Assay type: in vivo, lambsquarters (Chenopodium album)
# Conditions: foliage application, 320 g/ha, evaluated three weeks after application
# How it was run: as §2
row,Compound,herbicidal effect on O: lambsquarters (criteria 0-5)
1,C=Cc1ccc2sc(-c3ccccc3OC)c(-c3c(O)c(C)nn(C)c3=O)c2c1 [2-185],4 (Herbicidal rate of 70% or more and less than 90%)
2,Cc1nn(C)c(=O)c(-c2c(-c3ccccc3)sc3ccc(F)cc23)c1O [2-197],5 (Herbicidal rate of 90% or more (almost completely withered))

# System: velvetleaf
# Test: Test Example 4: herbicidal effect by soil treatment (Table 19, symbol M)
# Assay type: in vivo, velvetleaf (Abutilon theophrasti)
# Conditions: amount of applied herbicide 320 g/ha
# How it was run: as §1
row,Compound,"M: velvetleaf, herbicidal effect rating"
1,C=Cc1ccc2sc(-c3ccccc3OC)c(-c3c(O)c(C)nn(C)c3=O)c2c1 [2-185],0 (Herbicidal rate of 5% or less (almost no effect))
2,Cc1nn(C)c(=O)c(-c2c(-c3ccccc3)sc3ccc(F)cc23)c1O [2-197],4 (Herbicidal rate of 70% or more and less than 90%)

# System: barnyard grass
# Test: Test Example 4: herbicidal effect by soil treatment (Table 19, symbol H)
# Assay type: in vivo, barnyard grass (Echinochloa crus-galli)
# Conditions: amount of applied herbicide 320 g/ha
# How it was run: as §1
row,Compound,"H: barnyard grass, herbicidal effect rating"
1,C=Cc1ccc2sc(-c3ccccc3OC)c(-c3c(O)c(C)nn(C)c3=O)c2c1 [2-185],0 (Herbicidal rate of 5% or less (almost no effect))
2,Cc1nn(C)c(=O)c(-c2c(-c3ccccc3)sc3ccc(F)cc23)c1O [2-197],5 (Herbicidal rate of 90% or more (almost completely withered))

# System: redroot pigweed
# Test: Test Example 4: herbicidal effect by soil treatment (Table 19, symbol N)
# Assay type: in vivo, redroot pigweed (Amaranthus retroflexus)
# Conditions: amount of applied herbicide 320 g/ha
# How it was run: as §1
row,Compound,"N: redroot pigweed, herbicidal effect rating"
1,C=Cc1ccc2sc(-c3ccccc3OC)c(-c3c(O)c(C)nn(C)c3=O)c2c1 [2-185],5 (Herbicidal rate of 90% or more (almost completely withered))
2,Cc1nn(C)c(=O)c(-c2c(-c3ccccc3)sc3ccc(F)cc23)c1O [2-197],5 (Herbicidal rate of 90% or more (almost completely withered))

# System: green foxtail
# Test: Test Example 5: herbicidal effect by foliage application, plastic box (Table 20, symbol G)
# Assay type: in vivo, green foxtail (Setaria viridis)
# Conditions: foliage application, 320 g/ha, evaluated three weeks after application
# How it was run: as §2
row,Compound,herbicidal effect on G: green foxtail (criteria 0-5)
1,C=Cc1ccc2sc(-c3ccccc3OC)c(-c3c(O)c(C)nn(C)c3=O)c2c1 [2-185],3 (Herbicidal rate of 40% or more and less than 70%)
2,Cc1nn(C)c(=O)c(-c2c(-c3ccccc3)sc3ccc(F)cc23)c1O [2-197],5 (Herbicidal rate of 90% or more (almost completely withered))

# System: southern crabgrass
# Test: Test Example 4: herbicidal effect by soil treatment (Table 19, symbol F)
# Assay type: in vivo, southern crabgrass (Digitaria ciliaris)
# Conditions: amount of applied herbicide 320 g/ha
# How it was run: as §1
row,Compound,"F: southern crabgrass, herbicidal effect rating"
1,C=Cc1ccc2sc(-c3ccccc3OC)c(-c3c(O)c(C)nn(C)c3=O)c2c1 [2-185],0 (Herbicidal rate of 5% or less (almost no effect))
2,Cc1nn(C)c(=O)c(-c2c(-c3ccccc3)sc3ccc(F)cc23)c1O [2-197],4 (Herbicidal rate of 70% or more and less than 90%)
